Assay results as given in ChEMBL document CHEMBL5649167, “The SUV4-20 inhibitor A-196 verifies a role for epigenetics in genomic integrity” (Nat Chem Biol, 2017).
Activity calls are given as the source filed them. No cut-off for these calls is given here.

How the values were obtained:
[1] = molecular target: DNA (cytosine-5)-methyltransferase 1 (Homo sapiens) (UniProt P26358); assay: Inhibition of DNMT1 (unknown origin) using dsDNA as substrate at 1 to 10 uM incubated for 1 hrs in the presence of [3H-SAM] by scintillation proximity assay; settings: dose 1-10 µM
[2] = molecular target: DNMT3A2/3L complex (Homo sapiens) (UniProt Q9Y6K1+Q9UJW3); assay: Inhibition of DNMT3A/3L (unknown origin) at 1 to 10 uM incubated for 1 hrs by scintillation proximity assay; assay type: protein-complex assay; settings: dose 1-10 µM
U2OS [3] = assay: Induction of cell cycle arrest in human U2OS cells assessed as increase in H4K20me1 in S phase at 0.6 to 6 uM by plot analysis; assay type: functional, cell-based; settings: dose 0.6-6 µM
U2OS [4] = assay: Cytotoxicity against human U2OS cells assessed as cell viability upto 12.5 uM incubated for 48 hrs; assay type: functional, cell-based
HL-60 = assay: Cytotoxicity against human HL-60 cells assessed as cell viability upto 12.5 uM incubated for 48 hrs; assay type: functional, cell-based
U2OS [5] = assay: Antiproliferative activity against human U2OS cells assessed as cell population doubling at 1 uM incubated for 80 days; assay type: functional, cell-based; settings: time 80.0 day
HeLa = assay: Antiproliferative activity against human HeLa cells assessed as inhibition in H4K20me2 expression level 21 doublings by Western blot analysis; assay type: functional, cell-based
MEF [6] = assay: Antiproliferative activity against mouse MEF cells assessed as increase in H4K20me1 level at 10 uM incubated for 3 days by immunofluorescence analysis; assay type: functional, cell-based; settings: time 3.0 day
U2OS [7] = assay: Induction of DNA repair in human U2OS cells expressing I-SceI reporter assessed as increase in H4K20me1 level by Western blot analysis; assay type: functional, cell-based
U2OS [8] = assay: Induction of DNA repair in human U2OS cells expressing I-SceI reporter assessed as decrease in H4K20me2 level by Western blot analysis; assay type: functional, cell-based
[9] = molecular target: Serine/threonine-protein kinase 26 (Homo sapiens) (UniProt Q9P289); assay: Inhibition of human MST4 at 10 uM relative to control
[10] = molecular target: Serine/threonine-protein kinase Sgk1 (Homo sapiens) (UniProt O00141); assay: Inhibition of human SGK1 at 10 uM relative to control
[11] = molecular target: Fibroblast growth factor receptor 1 (Homo sapiens) (UniProt P11362); assay: Inhibition of human FGFR1 kinase at 10 uM relative to control
[12] = molecular target: Mu-type opioid receptor (Homo sapiens) (UniProt P35372); assay: Inhibition of human Mu-type opioid receptor at 10 uM relative to control
Homo sapiens [13] = species: Homo sapiens; assay: Inhibition of human Sodium channel site 2 at 10 uM relative to control
[14] = molecular target: C-C chemokine receptor type 1 (Homo sapiens) (UniProt P32246); assay: Inhibition of human C-C chemokine receptor type 1 at 10 uM relative to control
[15] = molecular target: Sodium-dependent dopamine transporter (Homo sapiens) (UniProt Q01959); assay: Inhibition of human Sodium-dependent dopamine transporter at 10 uM relative to control
[16] = molecular target: 5-hydroxytryptamine receptor 5A (Homo sapiens) (UniProt P47898); assay: Inhibition of human 5-HT5a at 10 uM relative to control
[17] = molecular target: T1, 5-hydroxytryptamine receptor 1A (Homo sapiens) (UniProt P08908); assay: Inhibition of human 5-HT1A at 10 uM relative to control
T1 sequence (whole entry): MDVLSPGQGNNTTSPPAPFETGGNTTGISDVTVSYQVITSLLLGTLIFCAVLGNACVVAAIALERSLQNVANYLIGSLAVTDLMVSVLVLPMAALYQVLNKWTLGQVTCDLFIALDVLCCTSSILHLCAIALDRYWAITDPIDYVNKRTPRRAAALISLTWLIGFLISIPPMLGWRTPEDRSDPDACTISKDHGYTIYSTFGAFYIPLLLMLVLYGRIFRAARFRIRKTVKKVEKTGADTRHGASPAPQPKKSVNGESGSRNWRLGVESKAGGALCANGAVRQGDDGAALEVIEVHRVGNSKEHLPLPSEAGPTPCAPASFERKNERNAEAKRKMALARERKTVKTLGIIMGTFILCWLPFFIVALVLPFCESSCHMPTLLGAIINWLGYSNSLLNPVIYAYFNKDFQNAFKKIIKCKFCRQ

Rattus norvegicus [18] = species: Rattus norvegicus; assay: Inhibition of Rat alpha 1-Adrenoceptor at 10 uM relative to control
Rattus norvegicus [19] = species: Rattus norvegicus; assay: Inhibition of Rat alpha 2-Adrenoceptor at 10 uM relative to control
[20] = molecular target: B2 bradykinin receptor (Homo sapiens) (UniProt P30411); assay: Inhibition of human BK-2 receptor at 10 uM relative to control
[21] = molecular target: Cholecystokinin receptor type A (Homo sapiens) (UniProt P32238); assay: Inhibition of human CCK1 at 10 uM relative to control
[22] = molecular target: 5-hydroxytryptamine receptor 2B (Homo sapiens) (UniProt P41595); assay: Inhibition of human 5-HT2B receptor expressed in stable HEK cells at 10 uM relative to control; assay type: cell-based
[23] = molecular target: Delta-type opioid receptor (Homo sapiens) (UniProt P41143); assay: Inhibition of human Delta-type opioid receptor expressed in stable HEK cells at 10 uM relative to control; assay type: cell-based
[24] = molecular target: 5-hydroxytryptamine receptor 5A (Homo sapiens) (UniProt P47898); assay: Inhibition of human HTR5A expressed in Cricetulus griseus Flp-In-CHO cells at 10 uM relative to control; assay type: cell-based
[25] = molecular target: 5-hydroxytryptamine receptor 1B (Homo sapiens) (UniProt P28222); assay: Inhibition of human 5-HT1B expressed in stable HEK cells at 10 uM relative to control; assay type: cell-based
[26] = molecular target: Muscarinic acetylcholine receptor M5 (Homo sapiens) (UniProt P08912); assay: Inhibition of human Muscarinic acetylcholine receptor M5 expressed in stable Cricetulus griseus CHO cells at 10 uM relative to control; assay type: cell-based
[27] = molecular target: Histamine H2 receptor (Homo sapiens) (UniProt P25021); assay: Inhibition of human Histamine H2 receptor expressed in stable HEK cells at 10 uM relative to control; assay type: cell-based
U2OS [28] = assay: Inhibition of H4K20me1 in human U2OS cells assessed as change in methylation level at 10 uM incubated for 48 hrs by Western blotting analysis; assay type: functional, cell-based
U2OS [29] = assay: Inhibition of H4K20me2 in human U2OS cells assessed as change in methylation level at 10 uM incubated for 48 hrs by Western blotting analysis; assay type: functional, cell-based
U2OS [30] = assay: Inhibition of H4K20me3 in human U2OS cells assessed as change in methylation level at 10 uM incubated for 48 hrs by Western blotting analysis; assay type: functional, cell-based
MEF [31] = assay: Antiproliferative activity against mouse MEF cells assessed as change in H4K20me3 at 10 uM incubated for 3 days by immunofluorescence analysis; assay type: functional, cell-based; settings: time 3.0 day
[32] = molecular target: Neurotensin receptor type 1 (Homo sapiens) (UniProt P30989); assay: Inhibition of human NTS1 at 10 uM relative to control
Homo sapiens [33] = species: Homo sapiens; assay: Inhibition of human CB1 at 10 uM relative to control
Homo sapiens [34] = species: Homo sapiens; assay: Inhibition of GABAA (unknown origin) at 10 uM relative to control
[35] = molecular target: Sodium-dependent noradrenaline transporter (Homo sapiens) (UniProt P23975); assay: Inhibition of human Norepinephrine transporter at 10 uM relative to control

Sequence of 5-hydroxytryptamine receptor 5A (Homo sapiens) (P47898 whole entry): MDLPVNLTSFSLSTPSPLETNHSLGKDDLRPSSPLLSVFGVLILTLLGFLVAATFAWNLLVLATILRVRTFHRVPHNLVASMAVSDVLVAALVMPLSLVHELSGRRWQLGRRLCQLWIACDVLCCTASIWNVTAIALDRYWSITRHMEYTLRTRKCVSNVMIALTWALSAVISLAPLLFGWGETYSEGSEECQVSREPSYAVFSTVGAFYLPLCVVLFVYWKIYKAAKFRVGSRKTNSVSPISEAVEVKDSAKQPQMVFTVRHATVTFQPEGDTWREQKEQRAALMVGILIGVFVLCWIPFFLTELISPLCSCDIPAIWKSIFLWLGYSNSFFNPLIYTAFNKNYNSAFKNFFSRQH
Sequence of Muscarinic acetylcholine receptor M5 (Homo sapiens) (P08912 whole entry): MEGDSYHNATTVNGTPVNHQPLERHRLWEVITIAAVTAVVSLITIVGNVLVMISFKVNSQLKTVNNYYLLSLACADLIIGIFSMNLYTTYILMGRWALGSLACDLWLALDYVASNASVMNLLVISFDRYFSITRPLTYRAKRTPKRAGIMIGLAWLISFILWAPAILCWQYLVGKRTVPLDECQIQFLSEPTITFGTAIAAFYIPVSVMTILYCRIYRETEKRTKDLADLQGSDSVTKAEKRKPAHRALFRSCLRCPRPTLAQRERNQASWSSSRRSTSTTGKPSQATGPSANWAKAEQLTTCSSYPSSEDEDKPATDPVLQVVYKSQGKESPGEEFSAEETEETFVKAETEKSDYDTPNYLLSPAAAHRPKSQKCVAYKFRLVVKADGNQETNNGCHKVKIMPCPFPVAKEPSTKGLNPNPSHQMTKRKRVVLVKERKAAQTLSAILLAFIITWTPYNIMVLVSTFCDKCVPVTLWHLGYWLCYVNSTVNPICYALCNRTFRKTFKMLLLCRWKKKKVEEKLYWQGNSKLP
Sequence of Mu-type opioid receptor (Homo sapiens) (P35372 whole entry): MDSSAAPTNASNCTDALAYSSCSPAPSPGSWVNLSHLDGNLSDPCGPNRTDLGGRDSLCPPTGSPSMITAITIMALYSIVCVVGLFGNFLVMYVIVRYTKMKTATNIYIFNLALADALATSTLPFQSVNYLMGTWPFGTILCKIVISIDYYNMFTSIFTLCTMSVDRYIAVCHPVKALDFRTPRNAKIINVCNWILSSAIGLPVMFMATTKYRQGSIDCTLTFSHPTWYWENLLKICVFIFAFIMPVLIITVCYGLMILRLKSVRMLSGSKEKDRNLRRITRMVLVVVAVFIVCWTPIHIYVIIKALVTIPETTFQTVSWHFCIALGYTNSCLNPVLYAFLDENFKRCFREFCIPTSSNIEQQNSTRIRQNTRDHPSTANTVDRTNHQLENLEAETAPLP
Sequence of 5-hydroxytryptamine receptor 2B (Homo sapiens) (P41595 whole entry): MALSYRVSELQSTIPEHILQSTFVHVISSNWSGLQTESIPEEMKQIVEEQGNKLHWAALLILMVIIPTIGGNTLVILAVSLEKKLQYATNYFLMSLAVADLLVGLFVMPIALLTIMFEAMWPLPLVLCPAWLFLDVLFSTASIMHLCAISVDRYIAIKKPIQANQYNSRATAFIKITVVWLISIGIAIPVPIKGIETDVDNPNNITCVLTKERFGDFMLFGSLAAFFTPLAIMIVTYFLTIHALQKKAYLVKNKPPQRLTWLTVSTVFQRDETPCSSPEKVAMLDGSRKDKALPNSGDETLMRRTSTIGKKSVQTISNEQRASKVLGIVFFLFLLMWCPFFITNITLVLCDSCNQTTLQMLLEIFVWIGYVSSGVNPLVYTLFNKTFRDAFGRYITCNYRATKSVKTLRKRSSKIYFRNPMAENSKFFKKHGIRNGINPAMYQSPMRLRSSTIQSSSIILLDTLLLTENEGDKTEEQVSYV
Sequence of Sodium-dependent dopamine transporter (Homo sapiens) (Q01959 whole entry): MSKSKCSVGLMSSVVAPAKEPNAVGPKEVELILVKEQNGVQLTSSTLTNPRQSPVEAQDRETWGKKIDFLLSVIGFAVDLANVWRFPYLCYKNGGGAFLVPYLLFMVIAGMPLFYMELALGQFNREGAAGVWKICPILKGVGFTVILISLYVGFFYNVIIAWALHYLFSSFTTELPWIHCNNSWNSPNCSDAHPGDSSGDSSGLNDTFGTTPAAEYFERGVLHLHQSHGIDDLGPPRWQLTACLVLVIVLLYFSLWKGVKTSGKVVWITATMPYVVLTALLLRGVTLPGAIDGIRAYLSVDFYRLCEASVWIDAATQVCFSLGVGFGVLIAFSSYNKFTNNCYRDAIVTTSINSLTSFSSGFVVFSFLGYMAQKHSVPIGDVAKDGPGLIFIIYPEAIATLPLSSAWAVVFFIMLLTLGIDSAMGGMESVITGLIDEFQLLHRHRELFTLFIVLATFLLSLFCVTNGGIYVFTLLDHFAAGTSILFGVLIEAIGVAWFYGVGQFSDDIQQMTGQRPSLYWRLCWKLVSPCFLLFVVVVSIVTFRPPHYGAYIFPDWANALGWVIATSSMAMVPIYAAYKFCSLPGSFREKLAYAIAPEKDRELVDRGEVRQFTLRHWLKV
Sequence of B2 bradykinin receptor (Homo sapiens) (P30411 whole entry): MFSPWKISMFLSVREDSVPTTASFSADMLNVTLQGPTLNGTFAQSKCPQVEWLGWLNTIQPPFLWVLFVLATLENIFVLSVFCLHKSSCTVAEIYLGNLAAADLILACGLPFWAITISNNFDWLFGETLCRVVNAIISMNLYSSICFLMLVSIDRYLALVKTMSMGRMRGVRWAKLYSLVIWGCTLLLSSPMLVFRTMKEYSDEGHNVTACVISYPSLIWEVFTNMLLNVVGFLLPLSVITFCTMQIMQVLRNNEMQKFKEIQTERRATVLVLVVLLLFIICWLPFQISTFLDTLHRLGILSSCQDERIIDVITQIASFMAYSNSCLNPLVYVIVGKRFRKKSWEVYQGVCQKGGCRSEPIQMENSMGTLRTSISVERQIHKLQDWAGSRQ
Sequence of Delta-type opioid receptor (Homo sapiens) (P41143 whole entry): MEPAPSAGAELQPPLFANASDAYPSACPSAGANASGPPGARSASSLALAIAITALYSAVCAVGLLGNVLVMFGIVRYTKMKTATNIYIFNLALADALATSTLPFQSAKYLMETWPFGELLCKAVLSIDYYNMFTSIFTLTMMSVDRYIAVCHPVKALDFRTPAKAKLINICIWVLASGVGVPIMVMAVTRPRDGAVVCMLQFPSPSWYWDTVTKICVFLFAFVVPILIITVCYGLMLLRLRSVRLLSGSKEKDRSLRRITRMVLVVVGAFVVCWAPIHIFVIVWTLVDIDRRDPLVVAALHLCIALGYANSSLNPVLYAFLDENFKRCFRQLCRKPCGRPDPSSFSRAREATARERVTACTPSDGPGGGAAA
Sequence of Histamine H2 receptor (Homo sapiens) (P25021 whole entry): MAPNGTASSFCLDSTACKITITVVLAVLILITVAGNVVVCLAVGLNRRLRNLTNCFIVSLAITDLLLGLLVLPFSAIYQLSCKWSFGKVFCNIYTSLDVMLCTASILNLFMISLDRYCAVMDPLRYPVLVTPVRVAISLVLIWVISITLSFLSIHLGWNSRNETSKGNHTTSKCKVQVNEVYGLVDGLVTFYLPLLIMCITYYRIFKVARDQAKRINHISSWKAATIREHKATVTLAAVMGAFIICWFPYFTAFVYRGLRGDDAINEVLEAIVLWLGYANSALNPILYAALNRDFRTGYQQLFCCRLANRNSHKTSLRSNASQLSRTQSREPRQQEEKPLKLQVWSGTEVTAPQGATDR
Sequence of C-C chemokine receptor type 1 (Homo sapiens) (P32246 whole entry): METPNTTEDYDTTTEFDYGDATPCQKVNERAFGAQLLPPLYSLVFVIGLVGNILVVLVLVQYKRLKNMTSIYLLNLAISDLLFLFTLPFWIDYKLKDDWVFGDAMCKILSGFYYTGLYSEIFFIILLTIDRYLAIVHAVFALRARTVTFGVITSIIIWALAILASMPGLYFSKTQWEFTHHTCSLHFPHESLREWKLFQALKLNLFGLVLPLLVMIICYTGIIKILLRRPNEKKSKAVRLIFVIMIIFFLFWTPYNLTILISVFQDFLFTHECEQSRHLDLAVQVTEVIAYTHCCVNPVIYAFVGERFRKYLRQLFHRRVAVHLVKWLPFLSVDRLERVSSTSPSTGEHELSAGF
Sequence of Cholecystokinin receptor type A (Homo sapiens) (P32238 whole entry): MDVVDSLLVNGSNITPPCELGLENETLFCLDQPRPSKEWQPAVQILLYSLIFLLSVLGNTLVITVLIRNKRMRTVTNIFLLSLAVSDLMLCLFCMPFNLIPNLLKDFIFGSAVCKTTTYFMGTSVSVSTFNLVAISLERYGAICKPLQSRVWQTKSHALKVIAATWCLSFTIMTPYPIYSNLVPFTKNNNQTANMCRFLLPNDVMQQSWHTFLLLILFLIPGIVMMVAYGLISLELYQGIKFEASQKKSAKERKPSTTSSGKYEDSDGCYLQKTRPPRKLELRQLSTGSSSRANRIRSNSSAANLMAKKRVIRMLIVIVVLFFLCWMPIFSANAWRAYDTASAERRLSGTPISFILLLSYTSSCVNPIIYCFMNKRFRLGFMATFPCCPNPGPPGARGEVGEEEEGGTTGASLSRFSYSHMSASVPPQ
Sequence of 5-hydroxytryptamine receptor 1B (Homo sapiens) (P28222 whole entry): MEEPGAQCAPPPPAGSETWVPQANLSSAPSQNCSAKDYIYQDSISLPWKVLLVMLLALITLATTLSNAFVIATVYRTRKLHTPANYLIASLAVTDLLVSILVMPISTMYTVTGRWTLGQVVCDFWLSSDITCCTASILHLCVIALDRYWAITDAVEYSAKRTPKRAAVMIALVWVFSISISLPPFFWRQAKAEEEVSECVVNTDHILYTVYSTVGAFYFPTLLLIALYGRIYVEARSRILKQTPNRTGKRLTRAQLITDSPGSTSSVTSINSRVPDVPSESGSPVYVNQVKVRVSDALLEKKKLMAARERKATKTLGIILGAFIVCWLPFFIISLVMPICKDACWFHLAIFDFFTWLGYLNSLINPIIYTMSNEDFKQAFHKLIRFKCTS

Compound	inhibition [12]	inhibition (Homo sapiens [13])	inhibition [14]	inhibition [15]	inhibition [16]	inhibition [17]	inhibition (Rattus norvegicus [18])	inhibition [20]	inhibition [21]	inhibition [22]	inhibition [23]	inhibition [24]	inhibition [25]	inhibition [26]	inhibition [27]	also measured
Clc1cc2c(NC3CCCC3)nnc(-c3ccncc3)c2cc1Cl	31%	17%	16%	14%	9%	5%	5%	1%	-2%	16%	11%	5%	4%	-1%	-1%	inhibition [1]: inactive; inhibition [2]: inactive; Activity (U2OS [3]): Active; Activity (U2OS [4]): Active; Activity (HL-60): Active; Activity (U2OS [5]): Active; Activity (HeLa): Active; Activity (MEF [6]): Active; Activity (U2OS [7]): Active; Activity (U2OS [8]): Active; inhibition [9]: -2%; inhibition [10]: -4%; inhibition [11]: -8%; inhibition (Rattus norvegicus [19]): 5%
O=C(c1nnc(NC2CCCC2)c2cc(Cl)c(Cl)cc12)N1CCC(O)CC1	23%	-5%	-3%	-1%	2%	-1%	12%	-4%	7%	4%	8%	-1%	5%	-4%	-7%	Activity (U2OS [28]): inactive; Activity (U2OS [29]): inactive; Activity (U2OS [30]): inactive; Activity (MEF [31]): inactive; inhibition [32]: 3%; inhibition (Homo sapiens [33]): 21%; inhibition (Homo sapiens [34]): 25%; inhibition [35]: 1%
